Measurements taken from patent US20100197727A1, “Quinoline Derivatives as Antibacterial Agents” (priority 2005, published 2010).

How the values were obtained:
Test in all cases: Microtitre plate assay, IC90 determination
Format in all cases: cell-based
Conditions in all cases: 90% inhibitory concentration for bacterial growth
[1] = test system: Staphylococcus aureus (ATCC25923)
Experimental: (§1) The bacteria used in this study were grown overnight in flasks containing 100 ml Mueller-Hinton Broth (Becton Dickinson—cat. no. 275730) in sterile de-ionized water, with shaking, at 37° C. Stocks (0.5 ml/tube) were stored at −70° C. until use. Bacteria titrations were performed in microtiter plates and colony forming units (CFUs) were determined In general, an inoculum level of approximately 100 CFUs was used for susceptibility testing.
(§2) Flat-bottom, sterile 96-well plastic microtiter plates were filled with 180 μl of sterile deionized water, supplemented with 0.25% BSA. Subsequently, stock solutions (7.8× final test concentration) of compounds were added in 45 μl volumes in column 2. Serial five-fold dilutions (45 μl in 180 μl ) were made directly in the microtiter plates from column 2 to reach column 11. Untreated control samples with (column 1) and without (column 12) inoculum were included in each microtiter plate. Depending on the bacteria type, approximately 10 to 60 CFU per well of bacteria inoculum (100 TCID50), in a volume of 100 μl in 2.8× Mueller-Hinton broth medium, was added to the rows A to H, except column 12. The same volume of broth medium without inoculum was added to column 12 in row A to H. The cultures were incubated at 37° C. for 24 hours under a normal atmosphere (incubator with open air valve and continuous ventilation). At the end of incubation, one day after inoculation, the bacterial growth was quantitated fluorometrically. Therefore resazurin (0.6 mg/ml) was added in a volume of 20 μl to all wells 3 hours after inoculation, and the plates were re-incubated overnight. A change in colour from blue to pink indicated the growth of bacteria. The fluorescence was read in a computer-controlled fluorometer (Cytofluor Biosearch) at an excitation wavelength of 530 nm and an emission wavelength of 590 nm. The % growth inhibition achieved by the compounds was calculated according to standard methods. The IC90 (expressed in μg/ml) was defined as the 90% inhibitory concentration for bacterial growth.

[2] = test system: Staphylococcus aureus (ATCC29213)
Experimental: as §1, §2

[3] = test system: Enterococcus faecalis (ATCC29212)
Experimental: as §1, §2

[4] = test system: Bacillus subtilis (ATCC43639)
Experimental: as §1, §2

[5] = test system: methicilline resistant Staphylococcus aureus (MRSA) (a clinical isolate from the University of Antwerp)
Experimental: as §1, §2

[6] = test system: Enterococcus faecalis (ATCC14506)
Experimental: as §1, §2

[7] = test system: Streptococcus pneumoniae (ATCC6305)
Experimental: as §1, §2

[8] = test system: Listeria monocytogenes (ATCC49594)
Experimental: as §1, §2

[9] = test system: Staphylococcus aureus (ATCC43300)
Experimental: as §1, §2

[10] = test system: Streptococcus mutans (ATCC33402)
Experimental: as §1, §2

[11] = test system: Streptococcus pyogens (ATCC8668)
Experimental: as §1, §2

[12] = test system: Pseudomonas aeruginosa (ATCC27853)
Experimental: as §1, §2

[13] = test system: Escherichia coli (ATCC25922)
Experimental: as §1, §2

[14] = test system: Escherichia coli (ATCC35218)
Experimental: as §1, §2

| Structure (SMILES) | IC90 STA 29213 [2] [µg/mL] | IC90 EFA 29212 [3] [µg/mL] | IC90 SPN 6305 [7] [µg/mL] | IC90 SPY 8668 [11] [µg/mL] | IC90 PAE 27853 [12] [µg/mL] | further results |
| --- | --- | --- | --- | --- | --- | --- |
| COc1nc2ccc(Br)cc2cc1C(c1ccccc1)C(O)(CC[N+](C)(C)C)c1ccccc1.[I-] (single isomer, unassigned) [Compound 10] | 14.5 | 5.8 | 16.3 | 1.3 | – | IC90 STA 25923 [1]: 11.5 µg/mL; IC90 BSU 43639 [4]: 10.3 µg/mL; IC90 STA RMETH [5]: 8.2 µg/mL; IC90 EFA 14506 [6]: 12.9 µg/mL; IC90 LMO 49594 [8]: 1.2 µg/mL; IC90 STA 43300 [9]: 5.8 µg/mL; IC90 SMU 33402 [10]: 10.3 µg/mL |
| COc1nc2ccc(Br)cc2cc1C(c1ccccc1)C(O)(CC[N+](C)(C)C)c1ccccc1.[I-] (single isomer, unassigned) [Compound 57] | 12.9 | 12.9 | 16.3 | 12.9 | – | IC90 STA 25923 [1]: 12.9 µg/mL; IC90 BSU 43639 [4]: 2.6 µg/mL; IC90 STA RMETH [5]: 12.9 µg/mL; IC90 EFA 14506 [6]: 12.9 µg/mL; IC90 LMO 49594 [8]: 2.6 µg/mL; IC90 STA 43300 [9]: 12.9 µg/mL; IC90 SMU 33402 [10]: 12.9 µg/mL |
| COc1nc2ccc(Br)cc2cc1C(c1ccccc1)C(O)(CC[N+](C)(C)C)c1cccc2ccccc12.[I-] (single isomer, unassigned) [Compound 121] | 0.4 | 2.8 | 3.5 | 3.5 | 13.9 | IC90 STA 25923 [1]: 2.2 µg/mL; IC90 BSU 43639 [4]: 2.8 µg/mL; IC90 STA RMETH [5]: 2.2 µg/mL; IC90 EFA 14506 [6]: 2.8 µg/mL; IC90 LMO 49594 [8]: 0.5 µg/mL; IC90 ECO 25922 [13]: 12.4 µg/mL; IC90 STA 43300 [9]: 3.5 µg/mL; IC90 SMU 33402 [10]: 2.8 µg/mL |
| CCCC[N+](C)(C)CCC(O)(c1cccc2ccccc12)C(c1ccccc1)c1cc2cc(Br)ccc2nc1OC.[I-] (single isomer, unassigned) [Compound C] | 0.4 | – | – | – | – | – |
| COc1nc2ccc(Br)cc2cc1C(c1ccccc1)C(O)(CCc1ccccc1)CC[N+](C)(C)C.[I-] (single isomer, unassigned) [Compound F] | 2.1 | – | – | – | – | – |
| COc1nc2ccc(Br)cc2cc1C(c1ccccc1)C(O)(CCC[N+](C)(C)C)c1cccc2ccccc12.[I-] (single isomer, unassigned) [Compound G] | 0.4 | – | – | – | – | – |
| COc1nc2ccc(Br)cc2cc1C(c1ccccc1)C(O)(CCCC[N+](C)(C)C)c1ccc2ccccc2c1.[I-] (single isomer, unassigned) [Compound H] | 0.5 | – | – | – | – | – |
| COc1nc2ccc(Br)cc2cc1C(c1ccccc1)C(O)(CCCC[N+](C)(C)C)c1ccccc1.[I-] (single isomer, unassigned) [Compound K] | 2.1 | – | – | – | – | – |
| CSc1nc2ccc(Br)cc2cc1C(c1ccccc1)C(O)(CCCC[N+](C)(C)C)c1ccccc1.[I-] (single isomer, unassigned) [Compound L] | 2.2 | 2.2 | 2.2 | 0.4 | 2.2 | IC90 ECO 35218 [14]: 11 µg/mL; IC90 BSU 43639 [4]: 2.2 µg/mL; IC90 LMO 49594 [8]: 2.2 µg/mL; IC90 SMU 33402 [10]: 0.4 µg/mL |
| COc1nc2ccc(Br)cc2cc1C(c1ccccc1)C(O)(CC[N+](C)(C)C)c1ccsc1.[I-] (single isomer, unassigned) [Compound M] | 1.7 | – | 8.34 | 8.34 | – | – |
| COc1nc2ccc(Br)cc2cc1C(c1ccc(Cl)cc1)C(O)(CC[N+](C)(C)C)c1ccccc1.[I-] (single isomer, unassigned) [Compound N] | 1.8 | 1.75 | 1.75 | 1.75 | 9.87 | IC90 ECO 35218 [14]: 17.55 µg/mL |
| COc1nc2ccc(Br)cc2cc1C(c1ccccc1)C(O)(CC[N+](C)(C)C)c1cccc(F)c1.[I-] (single isomer, unassigned) [Compound O] | 1.9 | 8.53 | 1.7 | 1.7 | – | – |
| COc1nc2ccc(Br)cc2cc1C(c1ccccc1)C(O)(CC[N+](C)(C)C)c1ccc2ccccc2c1.[I-] (single isomer, unassigned) [Compound Q] | 1.8 | 1.8 | 1.8 | 1.8 | 4.53 | – |
| COc1nc2ccc(Br)cc2cc1C(c1ccccc1)C(O)(CCC[N+](C)(C)C)c1ccc2ccccc2c1.[I-] (single isomer, unassigned) [Compound S] | 0.4 | 1.85 | 0.47 | 1.85 | 1.85 | – |
| CSc1nc2ccc(Br)cc2cc1C(c1ccccc1)C(O)(CC[N+](C)(C)C)c1ccccc1.[I-] (single isomer, unassigned) [Compound T] | 1.7 | 3.8 | 1.7 | 1.7 | 8.5 | – |
| COc1nc2ccc(Br)cc2cc1C(c1ccccc1)C(O)(CCCC[N+]1(C)CCCCC1)c1ccccc1.[I-] (single isomer, unassigned) [Compound U] | 1.9 | 1.86 | 2.09 | 1.86 | 9.33 | – |
| COc1nc2ccc(Br)cc2cc1C(c1ccccc1)C(O)(CCc1ccccc1)CC[N+](C)(C)C.[I-] (single isomer, unassigned) [E] | 2.1 | – | – | – | – | – |
| COc1nc2ccc(Br)cc2cc1C(c1ccccc1)C(O)(CCCC[N+](C)(C)C)c1ccc2ccccc2c1.[I-] (single isomer, unassigned) [I] | 2.9 | – | – | – | – | – |
| COc1nc2ccc(Br)cc2cc1C(c1ccccc1)C(O)(CCCC[N+](C)(C)C)c1ccccc1.[I-] (single isomer, unassigned) [J] | 2.1 | – | – | – | – | – |
| COc1nc2ccc(Br)cc2cc1C(c1ccccc1)C(O)(CCC[N+](C)(C)C)c1ccc2ccccc2c1.[I-] (single isomer, unassigned) [R] | 0.4 | 1.17 | 0.46 | 0.74 | 2.07 | IC90 ECO 35218 [14]: 9.27 µg/mL |
